# Reference: patent US20230398130A1, “METHODS AND COMPOSITIONS FOR DIFFERENTIATING STEM CELLS” (Massachusetts Institute of Technology, priority 2020, published 2023)
# “Also recorded” adds a separate entry of the source. Read-outs that look alike come from different tables or passages of the source.
# Key:
# [1] = test system: human small intestinal organoids; assay: Lysozyme secretion assay, stem cell-enriched human small intestinal organoids; assay type: cell-based; details: increasing KPT-330 concentrations, 6 days, three duodenal donors
# Description: (§1) To extend the observations from the murine organoid system, Applicants sought to examine how XPO1 inhibition via KPT-330 may effect human small intestinal stem cells by utilizing a stem-cell enriched human small intestinal organoid model^46 (see Methods).
# Human crypt isolation and organoid culture. Samples from adult human duodenum were collected for organoid culture in accordance with MGH IRB guidance. Human donor tissue was non-inflamed excess tissue collected during bulk surgical resection via MGH pathology. Crypts were isolated from bulk resections as follows. Bulk resections were cut into approximately 0.25 cm sections from epithelial surface, and washed in PBSO repeatedly by gently pipetting the fragments using a 10-ml pipette until the supernatant was clear. Fragments were rocked on ice with crypt isolation buffer (10 mM EDTA, 10 mM HEPES, 2% FCS in PBSO) for 30 min. After isolation buffer was removed, fragments were washed with cold PBSO by vigorous shaking to release the crypts, this process was repeated with reserved crypt-laden supernatant fractions 4-6 times or until supernatant was free of intact crypts (visual inspection). […]
# Lysozyme secretion assay. […] The solution was replaced to a 96-well white microplate, and luminescent signals were measured by a microplate reader (infinite M200, Tecan).
# small intestine = test system: small intestine; parameters: cycling cell number: dose or concentration left out as unconfirmed
# Text: FIG. 20—KPT-330 treatment in vivo.
# FIG. 21A-21C—Analysis of samples collected from the mice of FIG. 20. A. Western blot for lysozyme of samples collected from the small intestine proximal region. B. Graph showing band intensity of the western blot in (A). C. Histological analysis of the distal small intestine from control and treated mice using immunohistochemistry for lysozyme.
# FIG. 22—Analysis of samples collected from the mice of FIG. 20. […] Graphs showing Paneth cell, Goblet cell, and cycling cell numbers in the proximal and distal small intestines under each treatment condition using markers for each cell type.
# [2] = test system: human small intestinal organoids; assay: Immunofluorescent imaging for LYZ, human small intestinal organoids; assay type: cell-based; details: 160 nM KPT-330, 6 days
# Description: as §1
# Immunofluorescent imaging. For immunofluorescence staining of organoids, intestinal organoids in Matrigel were fixed with 4% paraformaldehyde, then transferred to centrifuge tube. After washing with PBS, the isolated organoids were permeabilized with 1% Triton X followed by incubation with blocking buffer (1% BSA+3% Donkey Serum+0.2% Triton X in PBS) at RT. The organoids were then stained with primary antibodies and fluorescent dye-labeled secondary antibodies as well as with DAPI. Slides were covered with […] ® Mounting Media (VECTOR). […] Images were acquired with a confocal laser scanning microscope (Nikon Eclipse 90i). For the analysis of Lysozyme+ cells per organoid area, the number of counted Lysozyme+ cells were normalized to measured organoid surface area. Image J was used for the data analysis.
# ISC-enriched organoids [3] = assay: Primary screen, 384-well 2.5-D organoid differentiation (ENR+CD, 6 days, Target Selective Inhibitor Library, vs whole-plate median): ATP (CellTiter-Glo 3D, CTG); details: for Z.CTG / SSMD.CTG: primary screen; for Z.CTG: standard z score; for SSMD.CTG: strictly standardized mean difference
# [4] = test system: ENR+CD differentiating organoids; assay: Longitudinal single-cell RNA-seq (Seq-Well) of organoid differentiation, ENR+CD with or without 160 nM KPT-330; assay type: cell-based, murine
# Text: For time points beyond 2 days, media was refreshed every other day. Following the Seq-Well protocol Applicants followed a standard library preparation, sequencing, and alignment process (see Methods). […] Single-cell RNA-sequencing. A single-cell suspension was obtained from organoids cultured under conditions for the differentiation time course as described above. Applicants utilized the Seq-Well platform for massively parallel scRNA-seq to capture transcriptomes of single cells on barcoded mRNA capture beads. […] In brief, 20,000 cells from one organoid condition were loaded onto one array containing 100,000 barcoded mRNA capture beads. The loaded arrays containing cells and beads were then sealed using a polycarbonate membrane with a pore size of […], which allows for exchange of buffers but retains biological molecules confined within each microwell. Subsequent exchange of buffers allows for cell lysis, transcript hybridization, and bead recovery before performing reverse transcription en masse. Following reverse transcription and exonuclease treatment to remove excess primers, PCR amplification was carried out using KAPA HiFi PCR Mastermix with 2,000 beads per 50 μL reaction volume. Libraries were then pooled and purified using Agencourt AMPure XP beads (Beckman Coulter, A63881) by a 0.6×SPRI followed by a 0.8×SPRI and quantified using Qubit […] (Thermo Fisher). Libraries were constructed using the Nextera Tagmentation method on a total of 800 pg of pooled cDNA library per sample. […] Arrays were sequenced with an Illumina NovaSeq System. The read structure was paired end with Read 1 starting from a custom read 1 primer containing 20 bases with a 12 bp cell barcode and 8 bp unique molecular identifier (UMI) and Read 2 being 50 bases containing transcript information. Single-cell RNA-sequencing computational pipelines and analysis. […] Briefly, for each sequencing run, raw sequencing data was converted to demultiplexed FASTQ files using bcl2fastq2 based on Nextera N700 indices corresponding to individual samples/arrays. […] Individual reads were tagged according to the 12-bp barcode sequencing and the 8-bp UMI contained in Read 1 of each fragment. Following alignment, reads were binned onto 12-bp cell barcodes and collapsed by their 8-bp UMI. Digital gene expression matrices (e.g. cell by gene tables) for each sample were obtained from quality filtered and mapped reads and UMI-collapsed data, are deposited in GSE100274, and were utilized as input into Seurat v3 for further analysis. […] Applicants collected 17 samples at the following timepoints: 6 hours (0.25 days), and 1, 2, 3, 4, or 6 days. […] For time points beyond 2 days, media was refreshed every other day. […] Murine and human single-cell RNA-sequencing and alignment. […] Excess Matrigel was removed per previously described washing protocol, and organoids were resuspended in TrypLE at 37 C for 15 min, with vigorous homogenization through a p200 pipette tip every 5 min. After 15 min, the suspension was passed through a 30 uM cell strainer twice, and counted under brightfield microscopy with trypan blue staining for viable single cells. For human organoid scRNA-seq, antibody-based cell hashing was performed, with all samples pooled following labeling and three washes in FACS buffer to remove excess antibody. Each sample was manually counted to equally weight in cell pools, and then the pool was split and processed as four identical samples.
# ISC-enriched organoids [5] = assay: Primary screen, 384-well 2.5-D organoid differentiation (ENR+CD, 6 days): basal lysozyme secretion (LYZ.NS); assay type: cell-based, murine; details: strictly standardized mean difference, primary screen
# Text: High-throughput screening.
# Paneth cells = assay: Immunofluorescent imaging of organoids: LYZ+ cells per organoid area; assay type: cell-based, murine
# Description: Immunofluorescent imaging. For immunofluorescence staining of organoids, intestinal organoids in Matrigel were fixed with 4% paraformaldehyde, then transferred to centrifuge tube. After washing with PBS, the isolated organoids were permeabilized with 1% Triton X followed by incubation with blocking buffer (1% BSA+3% Donkey Serum+0.2% Triton X in PBS) at RT. The organoids were then stained with primary antibodies and fluorescent dye-labeled secondary antibodies as well as with DAPI. Slides were covered with […]® Mounting Media (VECTOR). The following primary and secondary antibodies were used for the staining: rabbit anti-Lysozyme (1:1000, Thermo Fisher Scientific), rat anti-E-cadherin (1:1000, Thermo Fisher Scientific), Alexa Fluor 488 and 568 secondary antibodies (1:1000, Invitrogen). Images were acquired with a confocal laser scanning microscope (Nikon Eclipse 90i). For the analysis of Lysozyme+ cells per organoid area, the number of counted Lysozyme+ cells were normalized to measured organoid surface area. Image J was used for the data analysis.
# [6] = 1st of the 4 dose lines of the treatment (dose not given)
# [7] = 2nd of the 4 dose lines of the treatment (dose not given)
# [8] = 3rd of the 4 dose lines of the treatment (dose not given)
# [9] = 4th of the 4 dose lines of the treatment (dose not given)
structure (smiles),measurement,setting,value
O=C(/C=C\n1cnc(-c2cc(C(F)(F)F)cc(C(F)(F)F)c2)n1)NNc1cnccn1 [KPT-330],normalized LYZ secretion,[1],normalized LYZ secretion significantly increases with dose
same,Paneth cell number,"small intestine; distal small intestines, high dose",the high dose decreased Paneth cells
same,cycling cell number,"small intestine; distal small intestines, low dose",significant increase in cycling cell number
same,toxicity to mice,"small intestine; mouse, in vivo",toxic to mice
same,Paneth cell number,small intestine; proximal small intestines,no significant shift in Paneth cell number
same,goblet cell numbers,small intestine; proximal/distal small intestines,"no significant shift in goblet cell numbers, but the trend was an increase"
same,LYZ+ cell abundance (IF imaging),[2],increased LYZ+ cell abundance
same,Z.CTG,ISC-enriched organoids [3]; Dose 0.08 uM,0.503
same,Z.CTG,ISC-enriched organoids [3]; Dose 0.40 uM,−1.569
same,Z.CTG,ISC-enriched organoids [3]; Dose 2.00 uM,−2.135
same,Z.CTG,ISC-enriched organoids [3]; Dose 10.00 uM,−4.480
same,toxicity at concentrations higher than 160 nM,ISC-enriched organoids [3]; primary screening,higher concentrations proved toxic
same,SSMD.CTG,ISC-enriched organoids [3]; [6],0.686
same,SSMD.CTG,ISC-enriched organoids [3]; [7],−0.942
same,SSMD.CTG,ISC-enriched organoids [3]; [8],−2.044
same,SSMD.CTG,ISC-enriched organoids [3]; [9],−2.988
same,organoid cell type composition over differentiation time course,"[4]; 160 nM KPT-330 vs control, day 0.25-6",enhances stem conversion to mature cells; also recorded: relative depletion of stem I (and stem II & III) and enteroendocrine cells over time along with the corresponding enrichment of enterocytes and Paneth cells
same,"inferred signaling pathway activity (PROGENy), effect of KPT-330",[4]; Cohen's d per pathway and cell type,pan-epithelial increase in stress-associated Trail signaling
same,"inferred upstream TF activity clusters (DoRothEA), effect of KPT-330",[4]; Fisher's exact test per cell type,depletion of cell cycle cluster 0 and enrichment in stress response cluster 6
same,active and quiescent ISC signature,"[4]; early stem cell populations, KPT-330 vs control",induces a quiescent ISC signature and reduces an active ISC signature; also recorded: transition into quiescence
same,"differentially expressed genes, KPT-330 treated vs untreated","[4]; stem II/III populations, day 0.25-2",most significantly enriched (Xpo1) and depleted (Kpnb1
same,gene set enrichment analysis (MSigDB hallmark v7),"[4]; stem II/III populations, day 0.25-2, FDR<0.05",suppresses programs downstream of mitogen-driven signaling
same,SSMD.LYZ.NS,ISC-enriched organoids [5]; [6],1.021
same,SSMD.LYZ.NS,ISC-enriched organoids [5]; [7],−1.822
same,SSMD.LYZ.NS,ISC-enriched organoids [5]; [8],−1.556
same,SSMD.LYZ.NS,ISC-enriched organoids [5]; [9],−1.714
same,LYZ+ Paneth cell number (IF imaging),"Paneth cells; ENR with or without 160 nM KPT-330, 3 days",pro-Paneth differentiation effect is also observed
same,LYZ+ Paneth cell number (IF imaging),"Paneth cells; ENR+CD with 160 nM KPT-330, 6 days",an increase in Paneth cell number
